Test results taken from patent US20240286994A1, “NOVEL SQUARAMIDE DERIVATIVE AND USE THEREOF” (PUSAN NATIONAL UNIVERSITY INDUSTRY-UNIVERSITY COOPERATION …, priority 2021, published 2024).

Tested on: eIF2α phosphorylation
Test: Phospho-eIF2α (Ser51) sandwich ELISA in K562 cells
Type: cell-based
Conditions: serum-free RPMI, 10 μM compound, 6 hours; for Multiple changes in eIF2α phosphorylation at 10 μM (absorbance standardized to control = 1): DMSO-treated control set to 1; for fold induction at 10 µM: Homo sapiens, DMSO-treated control set to 1, read-out: Multiple changes in eIF2α phosphorylation at 10 μM (absorbance standardized to control = 1)
Procedure: Pathscan Phospho-eIF2a (Ser51) Sandwich ELISA Kit #7286 from Cell signaling was used. The K562 cell line was cultured in serum-free RPMI medium at 37° C. in the presence of 5% CO2. Cells were treated with test compounds at a concentration of 10 μM. Six hours after compound treatment, the cells were lysed with a lysis buffer included in the kit to obtain 50 μg of protein by quantification. Afterwards, ELISA assay was performed according to the manufacturer's protocol to obtain absorbance. The absorbance for each obtained compound was standardized to a value of which the control (DMSO-treated) is set to 1.

Row | Compound | Multiple changes in eIF2α phosphorylation at 10 μM (absorbance standardized to control = 1) | fold induction at 10 µM
1 | CC(C)(C)c1cccc(Nc2c(N[C@H]3CC[C@H](Oc4ccc(C(F)(F)F)cc4)CC3)c(=O)c2=O)c1 [Compound 28, 3-((3-(tert-Butyl)phenyl)amino)-4-(((1,4-trans)-4-(4-(trifluoromethyl)phenoxy)cyclohexyl)amino)cyclobut-3-ene-1,2-dione] | 1.92 | –
2 | COc1cccc(Nc2c(N[C@H]3CC[C@H](Oc4ccc(C(F)(F)F)cc4)CC3)c(=O)c2=O)c1 [Compound 33, 3-((3-Methoxyphenyl)amino)-4-(((1,4-trans)-4-(4-(trifluoromethyl)phenoxy)cyclohexyl)amino)cyclobut-3-ene-1,2-dione] | – | 0.83
3 | CS(=O)(=O)c1ccc(O[C@H]2CC[C@H](Nc3c(Nc4ccccc4F)c(=O)c3=O)CC2)cc1 [Compound 65, 3-((2-Fluorophenyl)amino)-4-(((1,4-trans)-4-(4-(methylsulfonyl)phenoxy)cyclohexyl)amino)cyclobut-3-ene-1,2-dione] | – | 1.07
4 | CC(C)(C)c1ccccc1Nc1c(N[C@H]2CC[C@H](Oc3ccc(S(C)(=O)=O)cc3)CC2)c(=O)c1=O [Compound 77, 3-((2-(tert-Butyl)phenyl)amino)-4-(((1,4-trans)-4-(4-(methylsulfonyl)phenoxy)cyclohexyl)amino)cyclobut-3-ene-1,2-dione] | 1.70 | –
